Tests used:
human A2A receptors = target: T1, human A2A receptors (Homo sapiens, UniProt P29274); experiment: Inhibition of human A2A receptor in recombinant HEK293 cells, cAMP quantification (HTRF); type: cell-based; settings: read-out: A2A (Category)
T1 construct: expressed in transfected cells; host or cells: HEK293
Method: (§1) The functional activities of human A2A and A2B receptors were determined by quantification of cAMP, being the second messenger for adenosine receptors.
(§2) After a 15 min incubation, HTRF reagents (cAMP dynamic 2, Cis Bio) were added and the cellular cAMP levels were determined using the ENVISION (Perkin Elmer) plate reader.

human A2B receptors = target: T2, human A2B receptors (Homo sapiens, UniProt P29275); experiment: Inhibition of human A2B receptor in recombinant HEK293 cells, cAMP quantification (HTRF); type: cell-based; settings: read-out: A2B (Category)
T2 construct: expressed in transfected cells; host or cells: HEK293
T2 sequence (P29275 1-332): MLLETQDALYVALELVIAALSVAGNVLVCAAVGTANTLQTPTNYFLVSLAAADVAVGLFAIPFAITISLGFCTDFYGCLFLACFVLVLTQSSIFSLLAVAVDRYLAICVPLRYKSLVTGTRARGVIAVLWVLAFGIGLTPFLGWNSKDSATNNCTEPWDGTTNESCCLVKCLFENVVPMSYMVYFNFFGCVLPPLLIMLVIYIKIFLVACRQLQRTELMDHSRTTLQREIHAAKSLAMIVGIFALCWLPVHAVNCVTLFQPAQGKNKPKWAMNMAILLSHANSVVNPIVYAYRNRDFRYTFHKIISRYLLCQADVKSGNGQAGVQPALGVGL
Method: as §1, §2

T1 sequence (P29274 whole entry): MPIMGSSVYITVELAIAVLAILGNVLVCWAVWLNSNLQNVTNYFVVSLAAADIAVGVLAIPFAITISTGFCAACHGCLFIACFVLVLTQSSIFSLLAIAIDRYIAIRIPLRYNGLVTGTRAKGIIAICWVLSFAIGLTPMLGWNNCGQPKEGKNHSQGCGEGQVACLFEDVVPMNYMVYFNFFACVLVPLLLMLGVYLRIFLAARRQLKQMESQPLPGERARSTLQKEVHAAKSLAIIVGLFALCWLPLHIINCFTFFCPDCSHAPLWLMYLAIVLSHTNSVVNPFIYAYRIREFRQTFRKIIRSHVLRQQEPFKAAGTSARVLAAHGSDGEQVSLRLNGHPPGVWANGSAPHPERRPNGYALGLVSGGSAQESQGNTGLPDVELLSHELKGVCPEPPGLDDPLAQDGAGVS

IC50 (human A2A receptors) [µM]	IC50 (human A2B receptors) [µM]	Structure (SMILES)
< 0.1	< 1	O=C(c1cc2c(cn1)c(Nc1ccccc1F)nn2CC(F)(F)F)N1CCCOCC1 [Compound 1, [3-(2-fluoroanilino)-1-(2,2,2-trifluoroethyl)pyrazolo[4,3-c]pyridin-6-yl]-(1,4-oxazepan-4-yl)methanone]
< 0.1	< 1	O=C(c1cc2c(cn1)c(Nc1ccccc1)nn2CC(F)(F)F)N1CCCOCC1 [Compound 2, [3-anilino-1-(2,2,2-trifluoroethyl)pyrazolo[4,3-c]pyridin-6-yl]-(1,4-oxazepan-4-yl)methanone]
< 0.1	< 0.1	O=C(c1cc2c(cn1)c(Nc1cccc(F)c1)nn2CC(F)(F)F)N1CCCOCC1 [Compound 6, [3-(3-fluoroanilino)-1-(2,2,2-trifluoroethyl)pyrazolo[4,3-c]pyridin-6-yl]-(1,4-oxazepan-4-yl)methanone]
< 0.1	< 0.1	COc1cccc(Nc2nn(CC(F)(F)F)c3cc(C(=O)N4CCCOCC4)ncc23)c1 [Compound 7, [3-(3-methoxyanilino)-1-(2,2,2-trifluoroethyl)pyrazolo[4,3-c]pyridin-6-yl]-(1,4-oxazepan-4-yl)methanone]
< 0.1	< 1	N#Cc1cccc(Nc2nn(CC(F)(F)F)c3cc(C(=O)N4CCCOCC4)ncc23)c1 [Compound 8, 3-[[6-(1,4-oxazepane-4-carbonyl)-1-(2,2,2-trifluoroethyl)pyrazolo[4,3-c]pyridin-3-yl]amino]benzonitrile]
< 0.1	< 1	COc1ccc(Nc2nn(CC(F)(F)F)c3cc(C(=O)N4CCCOCC4)ncc23)cc1 [Compound 11, [3-(4-methoxyanilino)-1-(2,2,2-trifluoroethyl)pyrazolo[4,3-c]pyridin-6-yl]-(1,4-oxazepan-4-yl)methanone]
< 0.1	< 1	N#Cc1ccc(Nc2nn(CC(F)(F)F)c3cc(C(=O)N4CCCOCC4)ncc23)cc1 [Compound 13, 4-[[6-(1,4-oxazepane-4-carbonyl)-1-(2,2,2-trifluoroethyl)pyrazolo[4,3-c]pyridin-3-yl]amino]benzonitrile]
< 0.1	< 1	O=C(c1cc2c(cn1)c(Nc1cc(F)cc(F)c1)nn2CC(F)(F)F)N1CCCOCC1 [Compound 15, [3-(3,5-difluoroanilino)-1-(2,2,2-trifluoroethyl)pyrazolo[4,3-c]pyridin-6-yl]-(1,4-oxazepan-4-yl)methanone]
< 0.1	< 0.1	Cc1ccc(Nc2nn(CC(F)(F)F)c3cc(C(=O)N4CCCOCC4)ncc23)cc1F [Compound 16, [3-(3-fluoro-4-methylanilino)-1-(2,2,2-trifluoroethyl)pyrazolo[4,3-c]pyridin-6-yl]-(1,4-oxazepan-4-yl)methanone]
< 0.1	< 1	O=C(c1cc2c(cn1)c(Nc1ccc(F)c(F)c1)nn2CC(F)(F)F)N1CCCOCC1 [Compound 17, [3-(3,4-difluoroanilino)-1-(2,2,2-trifluoroethyl)pyrazolo[4,3-c]pyridin-6-yl]-(1,4-oxazepan-4-yl)methanone]
< 0.1	< 1	O=C(c1cc2c(cn1)c(Nc1ccc(F)c(Cl)c1)nn2CC(F)(F)F)N1CCCOCC1 [Compound 18, [3-(3-chloro-4-fluoroanilino)-1-(2,2,2-trifluoroethyl)pyrazolo[4,3-c]pyridin-6-yl]-(1,4-oxazepan-4-yl)methanone]
< 0.1	< 0.1	O=C(c1cc2c(cn1)c(Nc1ccc(Cl)c(F)c1)nn2CC(F)(F)F)N1CCCOCC1 [Compound 19, [3-(4-chloro-3-fluoroanilino)-1-(2,2,2-trifluoroethyl)pyrazolo[4,3-c]pyridin-6-yl]-(1,4-oxazepan-4-yl)methanone]
< 0.1	< 1	O=C(c1cc2c(cn1)c(Nc1cccc(F)c1)nn2CC(F)(F)F)N1CC2CCC(C1)O2 [Compound 20, [3-(3-fluoroanilino)-1-(2,2,2-trifluoroethyl)pyrazolo[4,3-c]pyridin-6-yl]-(8-oxa-3-azabicyclo[3.2.1]octan-3-yl)methanone]
< 0.1	< 0.1	O=C(c1cc2c(cn1)c(Nc1ccc(F)cc1)nn2CC(F)(F)F)N1CC2CCC(C1)O2 [Compound 21, [3-(4-fluoroanilino)-1-(2,2,2-trifluoroethyl)pyrazolo[4,3-c]pyridin-6-yl]-(8-oxa-3-azabicyclo[3.2.1]octan-3-yl)methanone]
< 0.1	< 0.1	O=C(c1cc2c(cn1)c(Nc1ccc(F)cc1)nn2CC(F)(F)F)N1CCC(O)CC1 [Compound 22, [3-(4-fluoroanilino)-1-(2,2,2-trifluoroethyl)pyrazolo[4,3-c]pyridin-6-yl]-(4-hydroxy-1-piperidyl)methanone]
< 0.1	< 0.1	O=C(c1cc2c(cn1)c(Nc1cccc(F)c1)nn2CC(F)(F)F)N1CCC(O)CC1 [Compound 23, [3-(3-fluoroanilino)-1-(2,2,2-trifluoroethyl)pyrazolo[4,3-c]pyridin-6-yl]-(4-hydroxy-1-piperidyl)methanone]
< 0.1	< 0.1	O=C(c1cc2c(cn1)c(Nc1ccccn1)nn2CC(F)(F)F)N1CCC(O)CC1 [Compound 24, (4-hydroxy-1-piperidyl)-[3-(2-pyridylamino)-1-(2,2,2-trifluoroethyl)pyrazolo[4,3-c]pyridin-6-yl]methanone]
< 0.1	< 1	CS(=O)(=O)Cn1nc(Nc2ccc(F)cc2)c2cnc(C(=O)N3CCCOCC3)cc21 [Compound 27, [3-(4-fluoroanilino)-1-(methylsulfonylmethyl)pyrazolo[4,3-c]pyridin-6-yl]-(1,4-oxazepan-4-yl)methanone]
< 0.1	< 0.1	CS(=O)(=O)Cn1nc(Nc2cccc(F)c2)c2cnc(C(=O)N3CCCOCC3)cc21 [Compound 28, [3-(3-fluoroanilino)-1-(methylsulfonylmethyl)pyrazolo[4,3-c]pyridin-6-yl]-(1,4-oxazepan-4-yl)methanone]

Structure (SMILES)	IC50 (human A2A receptors) [µM]	IC50 (human A2B receptors) [µM]
O=C(c1cc2c(cn1)c(Nc1cccc(F)c1)nn2CC(F)(F)F)N1[C@@H]2CC[C@H]1C[C@@H](O)C2 [Compound 25, [3-(3-fluoroanilino)-1-(2,2,2-trifluoroethyl)pyrazolo[4,3-c]pyridin-6-yl]-(3-endo-hydroxy-8-azabicyclo[3.2.1]octan-8-yl)methanone]	< 0.1	< 0.1
O=C(c1cc2c(cn1)c(Nc1ccc(F)cc1)nn2CC(F)(F)F)N1[C@@H]2CC[C@H]1C[C@@H](O)C2 [Compound 26, [3-(4-fluoroanilino)-1-(2,2,2-trifluoroethyl)pyrazolo[4,3-c]pyridin-6-yl]-(3-endo-hydroxy-8-azabicyclo[3.2.1]octan-8-yl)methanone]	< 0.1	< 1
CS(=O)(=O)Cn1nc(Nc2ccccc2)c2cnc(C(=O)N3[C@@H]4CC[C@H]3C[C@@H](O)C4)cc21 [Compound 29, [3-anilino-1-(methylsulfonylmethyl)pyrazolo[4,3-c]pyridin-6-yl]-(3-endo-hydroxy-8-azabicyclo[3.2.1]octan-8-yl)methanone]	< 0.1	< 0.1

Source: US12194051B2, “5-azaindazole derivatives as adenosine receptor antagonists” (MERCK PATENT GMBH, priority 2018, dated 2025)
